Reference: patent publication US20120184514A1, “VITAMIN D COMPOUNDS AND METHODS FOR PREPARING SAME” (Vitamin Derivatives Inc., priority 2009, published 2012)

Test: Thermogravimetric analysis of a 1α-hydroxy-vitamin D3 sample
Assay type: physicochemical
Conditions: heated under nitrogen at 10 °C/min
Procedure: Thermogravimetric analysis of a 1α-hydroxy-vitamin D3 sample was performed using a TA Instruments 2950 thermogravimetric analyzer (available from TA Instruments of New Castle, Del.). The sample was placed in an aluminum sample pan and inserted into the thermogravimetric furnace. The furnace was heated under nitrogen at a rate of 10 ° C./min, from room temperature to a final temperature of 350° C. Nickel and Alumel™ (available from Hoskins Manufacturing Company, Novi, Mich.) were used as calibration standards. […] (See FIG. 6).

weight loss (thermogravimetric thermogram) (from 25° C. to 150° C.): 0.09%
decomposition temperature (thermogravimetric thermogram) (room temperature to 350° C.): > 200 °C
SMILES: C=C1/C(=C\C=C2/CCC[C@]3(C)[C@@H]([C@H](C)CCCC(C)C)CC[C@@H]23)C[C@@H](O)C[C@@H]1O [1α-hydroxy-vitamin D3, 1α, 3β,5Z,7E-9,10-secocholesta-5,7,10(19)-triene-1,3-diol]
